Patent US9682985B2, “(Indazol-4-yl) hexahydropyrrolopyrrolones and methods of use” (AbbVie Inc., priority 2015, dated 2017)

What was measured:
recombinant human Nav1.7 = target: T1, recombinant human Nav1.7 (Homo sapiens, UniProt Q15858); experiment: FRET-based membrane potential assay, Nav1.7; type: cell-based; details: HEK293 cells expressing recombinant human Nav1.7; veratridine + scorpion venom depolarization
T1 construct: expressed in transfected cells; host or cells: HEK293

hERG channel (Kv11.1) = target: T2, hERG channel (Kv11.1) (Homo sapiens, UniProt Q12809); experiment: hERG QPatch screening protocol (hERG current block); type: cell-based; details: HEK-293 cells stably transfected with hERG; tail current; room temperature
T2 construct: W. January (Wisconsin Alumni Research Foundation); host or cells: HEK-293
T2 sequence (Q12809 whole entry): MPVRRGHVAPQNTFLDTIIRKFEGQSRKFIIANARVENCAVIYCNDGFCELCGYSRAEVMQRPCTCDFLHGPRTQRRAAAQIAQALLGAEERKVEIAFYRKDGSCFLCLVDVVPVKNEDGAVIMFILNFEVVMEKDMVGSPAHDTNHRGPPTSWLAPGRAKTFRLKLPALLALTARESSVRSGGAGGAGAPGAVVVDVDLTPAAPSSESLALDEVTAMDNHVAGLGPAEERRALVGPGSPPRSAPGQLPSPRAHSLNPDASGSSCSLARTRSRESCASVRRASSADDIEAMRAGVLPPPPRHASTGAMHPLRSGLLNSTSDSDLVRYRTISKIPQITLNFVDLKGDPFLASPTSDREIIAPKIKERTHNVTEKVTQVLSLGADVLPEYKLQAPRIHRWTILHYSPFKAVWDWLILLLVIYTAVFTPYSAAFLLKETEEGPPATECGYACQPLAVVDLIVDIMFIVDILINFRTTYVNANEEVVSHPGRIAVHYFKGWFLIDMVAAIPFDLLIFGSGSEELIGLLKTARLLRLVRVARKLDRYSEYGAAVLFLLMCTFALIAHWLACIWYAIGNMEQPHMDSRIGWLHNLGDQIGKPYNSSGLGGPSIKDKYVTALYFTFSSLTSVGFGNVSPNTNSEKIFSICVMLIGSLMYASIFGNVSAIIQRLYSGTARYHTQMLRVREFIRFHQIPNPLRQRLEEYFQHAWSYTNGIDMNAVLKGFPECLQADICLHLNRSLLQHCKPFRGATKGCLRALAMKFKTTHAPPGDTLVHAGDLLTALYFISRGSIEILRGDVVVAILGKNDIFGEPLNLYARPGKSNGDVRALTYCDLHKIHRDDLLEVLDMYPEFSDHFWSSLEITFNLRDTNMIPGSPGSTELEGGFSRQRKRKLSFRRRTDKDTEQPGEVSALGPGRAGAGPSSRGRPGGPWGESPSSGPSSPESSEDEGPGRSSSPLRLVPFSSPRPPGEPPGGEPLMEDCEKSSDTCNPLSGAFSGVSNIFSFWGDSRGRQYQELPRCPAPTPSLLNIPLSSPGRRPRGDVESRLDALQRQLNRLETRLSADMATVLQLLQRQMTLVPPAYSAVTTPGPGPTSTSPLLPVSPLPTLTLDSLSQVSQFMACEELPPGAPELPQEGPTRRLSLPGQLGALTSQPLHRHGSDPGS
Experimental: hERG QPatch Screening Protocol
Solutions and Compound Plates:
The bath solution contained (in mM): 140 NaCl, 5 KCl, 1 MgCl2, 2 CaCl2, 5 glucose, 20 HEPES, pH=7.4. The internal solution contained (in mM): 125 K-aspartate, 20 KCl, 10 EGTA, 5 MgATP, 1 MgCl2, 5 HEPES, pH=7.3.
Compound plates were prepared with an acoustic liquid handler (Echo® 550, Labcyte), using 384-well source plates and 96-well destination plates. Compounds were delivered to the destination plates as 300 nL spots in half-log increments (1, 3, 10 and 30 mM), dissolved in dimethyl sulfoxide. Plates were solvated with bath solution (300 μL) to final concentrations (1, 3, 10 and 30 μM; 0.1% dimethyl sulfoxide) and added to the QPatch workstation.
Cells and Cell Preparation:
Human embryonic kidney (HEK-293) cells, stably transfected with the hERG channel, were obtained from Dr. C. W. January (Wisconsin Alumni Research Foundation). Cells were initially maintained at 37° C. (5% CO2 atmosphere) in MEM supplemented media. Cells were cryo-preserved in 10% dimethyl sulfoxide, 90% fetal bovine serum at 10 M cells/mL. For electrophysiological studies, cells were thawed, resuspended in media at 1.0-1.5 M cells/mL and placed on the QPatch workstation.
QPatch Electrophysiology Workstation and Experimental Protocol:
Currents were recorded using QPatch HT (Sophion), an automated planar patch-clamp system. The QPatch uses forty-eight amplifiers and a 48-chamber QPlate positioned directly on top of the headstage. To obtain high resistant seals, cells are added to each chamber and allowed to settle for 10 seconds. Negative pressure is then applied to promote cell delivery to the patch chip openings on the chamber bottom. After formation of GΩ seals, negative pressure ramps are applied to obtain intracellular access. Access resistance was initially optimized by additional pressure ramps to assure the intracellular access was adequate for voltage clamp experiments (targeted access resistance <10 MΩ). Whole-cell compensation and series resistance compensation were used at 60% (both predicted and corrected). Experiments using QPatch were conducted at room temperature.
A single application of each concentration was applied to cells. During a five-minute wash-in period, a four-second depolarizing pulse to +20 mV, followed by a five-second repolarizing pulse to −50 mV was applied once every 15 seconds from a holding potential of −80 mV. Cells were exposed to four ascending concentrations of drug in half-log intervals.
Evaluation of hERG Current Block:
hERG tail current was measured as the difference in amplitude between a […] and the end of a five-second test pulse to −50 mV, preceded by a four-second pulse to +20 mV. The hERG IC50 values for compounds were determined from tail current analysis. The IC50 was calculated with a logistic fitting routine using the following equation: y=[(A1−A2)/(1+(x/IC50))^p]A2, where A1=initial×value, A2=final×value and p=power.

[1] = tested on: MIA-induced osteoarthritic pain in rats; experiment: Osteoarthritic (OA) pain induced by sodium monoiodoacetate (MIA), hind limb grip force; type: in vivo; details: rat MIA-OA, 20 days after MIA
Experimental: Osteoarthritic (OA) Pain Induced by Sodium Monoiodoacetate (MIA)
Pain behavior was assessed by measurement of hind limb grip force (GF) in adult osteoarthritic rats. Male Sprague Dawley rats, obtained from Charles River Laboratories, (Wilmington, Mass.), weighing 150-175 g, were injected in the unilateral knee join with a single intra-articular injection of sodium monoiodoacetate (MIA, 3 mg/rat). All rats were tested at 20 days following MIA injection. A behavioral measure of activity-induced pain was carried out. Measurements of the peak hind limb grip force were conducted by recording the maximum compressive force (CFmax), in grams of force, exerted on a hind limb strain gauge setup, in a commercially available grip force measurement system (Columbus Instruments, Columbus, Ohio).
During testing, each rat was gently restrained by grasping it around its rib cage and then allowed to grasp the wire mesh frame attached to the strain gauge. The experimenter then moved the animal in a rostral-to-caudal direction until the grip was broken. Each rat was sequentially tested twice at an approximately 2-3 minute interval to obtain a raw mean grip force (CFmax). This raw mean grip force data was in turn converted to a maximum hindlimb cumulative compressive force (CFmax), as the grams of force/kg of body weight, for each animal.
For evaluating the compound effects, the hind limb grip force was conducted 20 days following the intra-articular injection of MIA. A group of age-matched naïve (not injected with MIA) animals was added as a comparator to the drug-dosed groups. The vehicle control response for each group of MIA-treated animals was defined as the 0% response (0% effect), whereas the naïve control group was defined as the normal response and as 100% effect. The % effect for each dose group was expressed as % return of response to normalcy, compared to the naïve group. A percent maximal possible effect (% MPE) of testing compound was calculated according to the formula: (Treatment CFmax Vehicle CFmax)/Vehicle CFmax]×100). Higher % effect numbers indicate increased relief from the pain in the model, with 100% indicating a return to the level of response seen in normal (non-osteoarthritic) animals. All experiments evaluating drug effects in this model were conducted in a randomized blinded fashion.
The animals were housed in Association for Assessment and Accreditation of Laboratory Animal Care (AAALAC) approved facilities at AbbVie Inc. in a temperature-regulated environment under a controlled 12-hour light-dark cycle, with lights on at 6:00 a.m. Food and water were available ad libitum at all times except during testing. All testing was done following procedures outlined in protocols approved by AbbVie Inc.'s Institutional Animal Care and Use Committee.

[2] = tested on: SNL-induced neuropathic pain in rats; experiment: Rat spinal nerve ligation (SNL) model of neuropathic pain, paw withdrawal threshold; type: in vivo; details: SNL dose 100 mg/kg
Excerpt: Rat Spinal Nerve Ligation (SNL) Model of Neuropathic Pain.
A model of spinal nerve ligation-induced (SNL model) neuropathic pain as originally described by Kim and Chung (Kim, S. H. and J. M. Chung, 1992, Pain 50, 355) was used to test a compound of the present application. The male Sprague Dawley rats (Charles River Laboratories, Wilmington, Mass.), weighing 150-175 g at the time of surgery, were placed under isoflurane anesthesia and a 1.5 cm incision was made dorsal to the lumbosacral plexus. The paraspinal muscles (left side) were separated from the spinous processes, the left L5 and L6 spinal nerves isolated, and tightly ligated with 5-0 silk suture distal to the dorsal root ganglion. Care was taken to avoid ligating the L4 spinal nerve. Following spinal nerve ligation, a minimum of 7 days of recovery and no more than 3 weeks was allowed prior to the behavioral testing (mechanical sensitivity). Only rats with threshold scores ≦4.5 g were considered allodynic and utilized in pharmacological experiments.
Mechanical sensitivity was measured using calibrated von Frey filaments (Stoelting, Wood Dale, Ill.). Paw withdrawal threshold (PWT) was determined by using the Dixon's up-down method (Dixon, W. J., 1980, Ann. Rev. Pharmacol. Toxicol., 20, 441). Rats were placed into inverted individual plastic containers (20×12.5×20 cm) on top of a suspended wire mesh with a 1 cm^2 grid to provide access to the ventral side of the hind paws, and acclimated to the test chambers for 20 minutes. The von Frey filaments were presented perpendicularly to the plantar surface of the selected hind paw, and then held in this position for approximately 8 seconds with enough force to cause a slight bend in the filament. […] A 50% withdrawal threshold was determined using an up-down procedure (Dixon, 1980). A percent maximal possible effect (% MPE) of testing compound was calculated according to the formula: (Log [compound−treated threshold]−Log [vehicle−treated threshold])/(Log [maximum threshold]−Log [vehicle-treated threshold])×100%, where the maximum threshold was equal to 15 g. […]

recombinant human Nav1.8 = target: T3, recombinant human Nav1.8 (Homo sapiens, UniProt Q9Y5Y9); experiment: FRET-based membrane potential assay, Nav1.8; type: cell-based; details: HEK293 cells expressing recombinant human Nav1.8; veratridine + scorpion venom depolarization
T3 construct: host or cells: HEK293
T3 sequence (Q9Y5Y9 whole entry): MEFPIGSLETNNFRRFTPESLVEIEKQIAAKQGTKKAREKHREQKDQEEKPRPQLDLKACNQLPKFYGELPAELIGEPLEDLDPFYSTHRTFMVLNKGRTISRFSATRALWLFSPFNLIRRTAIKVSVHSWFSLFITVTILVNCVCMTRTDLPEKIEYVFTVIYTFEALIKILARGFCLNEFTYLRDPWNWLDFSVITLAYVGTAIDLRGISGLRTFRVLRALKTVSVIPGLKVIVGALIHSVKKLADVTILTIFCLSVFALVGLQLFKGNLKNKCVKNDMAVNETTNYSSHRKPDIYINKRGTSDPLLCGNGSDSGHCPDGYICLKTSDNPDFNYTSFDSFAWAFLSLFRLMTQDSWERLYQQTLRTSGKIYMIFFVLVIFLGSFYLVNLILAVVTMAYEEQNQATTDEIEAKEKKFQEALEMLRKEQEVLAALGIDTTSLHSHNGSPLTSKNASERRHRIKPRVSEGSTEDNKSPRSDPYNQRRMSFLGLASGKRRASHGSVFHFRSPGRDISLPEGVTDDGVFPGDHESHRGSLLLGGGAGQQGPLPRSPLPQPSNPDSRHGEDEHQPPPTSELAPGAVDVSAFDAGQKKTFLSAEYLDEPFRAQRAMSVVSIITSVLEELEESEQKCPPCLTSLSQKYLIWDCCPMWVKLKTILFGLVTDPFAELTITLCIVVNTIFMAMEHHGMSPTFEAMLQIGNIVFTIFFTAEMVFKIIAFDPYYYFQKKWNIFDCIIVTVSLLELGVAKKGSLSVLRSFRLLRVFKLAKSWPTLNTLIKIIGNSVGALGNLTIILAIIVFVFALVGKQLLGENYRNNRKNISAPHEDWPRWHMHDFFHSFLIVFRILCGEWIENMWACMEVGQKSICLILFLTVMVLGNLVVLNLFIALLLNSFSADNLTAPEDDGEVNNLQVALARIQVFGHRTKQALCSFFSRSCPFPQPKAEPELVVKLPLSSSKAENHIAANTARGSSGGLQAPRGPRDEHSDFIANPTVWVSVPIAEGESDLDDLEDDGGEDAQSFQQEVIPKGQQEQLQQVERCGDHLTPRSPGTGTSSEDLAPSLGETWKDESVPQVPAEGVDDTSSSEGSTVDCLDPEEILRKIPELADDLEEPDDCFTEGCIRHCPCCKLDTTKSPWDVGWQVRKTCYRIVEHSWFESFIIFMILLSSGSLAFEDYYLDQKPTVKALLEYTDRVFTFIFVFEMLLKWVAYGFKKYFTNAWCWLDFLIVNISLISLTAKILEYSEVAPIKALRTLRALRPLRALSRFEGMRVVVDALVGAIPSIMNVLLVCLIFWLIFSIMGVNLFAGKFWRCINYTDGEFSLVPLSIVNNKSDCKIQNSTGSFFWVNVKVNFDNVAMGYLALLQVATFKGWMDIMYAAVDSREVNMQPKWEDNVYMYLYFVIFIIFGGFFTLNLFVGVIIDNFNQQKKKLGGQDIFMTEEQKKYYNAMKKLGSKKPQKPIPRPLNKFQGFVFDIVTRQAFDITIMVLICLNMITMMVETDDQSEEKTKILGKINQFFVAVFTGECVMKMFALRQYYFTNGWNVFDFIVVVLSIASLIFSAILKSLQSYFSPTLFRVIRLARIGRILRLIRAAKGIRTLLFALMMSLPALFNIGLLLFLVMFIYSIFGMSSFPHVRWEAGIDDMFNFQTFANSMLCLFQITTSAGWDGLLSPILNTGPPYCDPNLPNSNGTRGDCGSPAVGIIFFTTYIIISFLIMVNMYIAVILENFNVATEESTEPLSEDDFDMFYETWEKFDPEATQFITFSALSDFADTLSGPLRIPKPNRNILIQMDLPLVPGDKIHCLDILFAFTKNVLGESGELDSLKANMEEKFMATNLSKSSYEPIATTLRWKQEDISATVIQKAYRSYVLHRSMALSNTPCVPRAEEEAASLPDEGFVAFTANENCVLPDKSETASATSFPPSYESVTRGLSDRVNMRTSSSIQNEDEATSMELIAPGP

T1 sequence (Q15858 whole entry): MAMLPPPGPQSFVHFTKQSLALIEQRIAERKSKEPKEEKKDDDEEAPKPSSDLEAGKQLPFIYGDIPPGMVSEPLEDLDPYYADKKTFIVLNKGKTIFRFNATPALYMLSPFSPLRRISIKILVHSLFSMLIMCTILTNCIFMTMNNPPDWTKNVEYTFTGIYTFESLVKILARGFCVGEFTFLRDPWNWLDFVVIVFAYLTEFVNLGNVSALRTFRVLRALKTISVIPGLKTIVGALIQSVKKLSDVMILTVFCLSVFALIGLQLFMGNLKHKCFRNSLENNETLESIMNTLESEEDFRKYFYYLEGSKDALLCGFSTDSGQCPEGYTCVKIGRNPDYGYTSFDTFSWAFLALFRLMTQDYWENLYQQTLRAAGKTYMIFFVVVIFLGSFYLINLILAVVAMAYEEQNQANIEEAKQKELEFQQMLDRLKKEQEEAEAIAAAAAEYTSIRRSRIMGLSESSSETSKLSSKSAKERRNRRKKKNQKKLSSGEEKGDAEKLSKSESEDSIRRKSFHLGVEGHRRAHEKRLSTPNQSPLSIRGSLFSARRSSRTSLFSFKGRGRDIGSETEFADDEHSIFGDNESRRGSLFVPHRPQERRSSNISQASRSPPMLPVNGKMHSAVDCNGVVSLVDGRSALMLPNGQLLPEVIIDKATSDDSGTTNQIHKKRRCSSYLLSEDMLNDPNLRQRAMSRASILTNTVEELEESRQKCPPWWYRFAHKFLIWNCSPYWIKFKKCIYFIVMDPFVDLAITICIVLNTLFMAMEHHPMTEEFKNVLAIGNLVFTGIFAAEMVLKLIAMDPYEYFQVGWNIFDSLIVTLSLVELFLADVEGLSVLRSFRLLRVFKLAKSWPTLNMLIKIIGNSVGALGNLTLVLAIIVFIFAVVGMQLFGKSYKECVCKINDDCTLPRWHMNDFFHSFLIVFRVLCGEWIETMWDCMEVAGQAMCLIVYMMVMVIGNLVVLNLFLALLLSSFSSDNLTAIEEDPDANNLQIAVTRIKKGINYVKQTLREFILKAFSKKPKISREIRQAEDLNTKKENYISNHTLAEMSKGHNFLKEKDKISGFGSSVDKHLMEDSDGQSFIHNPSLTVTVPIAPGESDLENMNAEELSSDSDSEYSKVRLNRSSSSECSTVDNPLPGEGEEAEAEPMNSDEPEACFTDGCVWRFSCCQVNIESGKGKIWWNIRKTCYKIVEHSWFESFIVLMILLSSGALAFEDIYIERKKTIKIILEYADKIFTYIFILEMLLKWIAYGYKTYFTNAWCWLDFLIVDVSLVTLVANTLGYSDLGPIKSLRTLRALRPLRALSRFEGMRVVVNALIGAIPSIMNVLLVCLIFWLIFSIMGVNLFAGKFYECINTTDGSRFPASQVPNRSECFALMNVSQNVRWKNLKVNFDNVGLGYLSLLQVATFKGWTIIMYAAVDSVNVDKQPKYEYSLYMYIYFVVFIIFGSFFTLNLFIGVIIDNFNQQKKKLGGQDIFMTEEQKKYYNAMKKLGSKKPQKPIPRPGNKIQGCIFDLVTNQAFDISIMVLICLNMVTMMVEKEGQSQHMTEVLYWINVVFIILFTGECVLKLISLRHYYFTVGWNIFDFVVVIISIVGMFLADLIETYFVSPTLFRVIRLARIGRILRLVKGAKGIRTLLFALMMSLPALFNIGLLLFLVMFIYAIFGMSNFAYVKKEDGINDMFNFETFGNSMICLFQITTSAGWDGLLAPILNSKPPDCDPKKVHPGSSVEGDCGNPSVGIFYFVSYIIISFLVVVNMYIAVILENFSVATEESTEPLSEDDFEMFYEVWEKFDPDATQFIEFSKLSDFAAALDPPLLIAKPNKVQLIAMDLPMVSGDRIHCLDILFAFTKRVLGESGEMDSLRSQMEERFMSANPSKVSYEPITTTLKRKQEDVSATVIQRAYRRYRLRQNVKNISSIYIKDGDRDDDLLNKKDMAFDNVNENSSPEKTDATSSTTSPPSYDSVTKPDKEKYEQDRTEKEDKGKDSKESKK

## O=C(CC1CCCO1)N1C[C@@H]2CN(c3cccc4c3cnn4-c3ccccc3F)C(=O)[C@H]2C1 (relative stereo) [Example 10, rel-(3aR,6aR)-2-[1-(2-fluorophenyl)-1H-indazol-4-yl]-5-(tetrahydrofuran-2-ylacetyl)hexahydropyrrolo[3,4-c]pyrrol-1(2H)-one]
Recombinant human Nav1.7
  IC50: 2.07 µM
hERG channel (Kv11.1)
  IC50: > 30 µM
[1]; OA dose 10 mg/kg
  OA MPE: 74%
[2]
  SNL MPE: 59%

## CC(C)(O)CC(=O)N1C[C@H]2CN(c3cccc4c3cnn4-c3ccccc3F)C(=O)[C@H]2C1 [Example 35, (3aS,6aR)-2-[1-(2-fluorophenyl)-1H-indazol-4-yl]-5-(3-hydroxy-3-methylbutanoyl)hexahydropyrrolo[3,4-c]pyrrol-1(2H)-one]
[1]; OA dose 30 mg/kg
  OA MPE: 99%
[2]
  SNL MPE: 40%

## C[C@H](O)CC(=O)N1C[C@H]2CN(c3cccc4c3cnn4-c3ccccc3F)C(=O)[C@H]2C1 [Example 34, (3aS,6aR)-2-[1-(2-fluorophenyl)-1H-indazol-4-yl]-5-[(3S)-3-hydroxybutanoyl]hexahydropyrrolo[3,4-c]pyrrol-1(2H)-one]
Recombinant human Nav1.7
  IC50: 9.91 µM
Recombinant human Nav1.8
  IC50: 8.36 µM
hERG channel (Kv11.1)
  IC50: > 30 µM
[1]; OA dose 30 mg/kg
  OA MPE: 85%
[2]
  SNL MPE: 60%
